From PMC6792352, “Limited Chemical Structural Diversity Found to Modulate Thyroid Hormone Receptor in the Tox21 Chemical Library” (Environmental Health Perspectives, 2019)
Structures can show the parent of a compound that is named as a salt.

Experiment: in vitro
Conditions: rat, gh3-tre-luc cells

SMILES | CC50 at 24 h (AC50 (uM) modified / 1000) | also measured
CCOc1cccc(C2(N3CCN(c4ccccc4)CC3)CCC(C)CC2)c1 (stereo not drawn) [CP-422935] | > 90 µM | –
Nc1ccc(-c2ccc(N)c(Cl)c2)cc1Cl [3,3'-Dichlorobenzidine dihydrochloride] | – | CC50 at 24 h (AC50 (uM) modified / 1000, Tox21_110001=Tox21_201906, viability, 1 nM T3 present, 24 h): 76.5 µM; CC50 at 24 h (AC50 (uM) modified / 1000, Tox21_110001=Tox21_302894, viability, 1 nM T3 present, 24 h): 20.3 µM
Brc1ccc(Oc2ccccc2)cc1 [p-Bromodiphenyl ether] | > 90 µM | –
Nc1nc(N)nc(NC2CC2)n1 [Cyromazine] | > 90 µM | –
CC1(C)Cc2cccc(O)c2O1 [2,3-Dihydro-2,2-dimethyl-7-benzofuranol] | > 100 µM | –
NC1CCN(c2cccc(Cl)n2)CC1 [SR 57227A hydrochloride] | 24.7 µM | –
O=C(O)P(=O)(O)O [Foscarnet trisodium] | > 50 µM | –
CN(C)P(=O)(N(C)C)N(C)C [Hexamethylphosphoramide] | – | CC50 at 24 h (AC50 (uM) modified / 1000, Tox21_110001=Tox21_201837, viability, 1 nM T3 present, 24 h): > 90 µM
CC(=O)OC/C=C(/C)CCC=C(C)C [cis-3,7-Dimethyl-2,6-octadien-1-yl acetate] | > 90 µM | –
C/C=C/C=C/CCCCCCCO [Codlelure] | 79.4 µM | –
CCNS(=O)(=O)c1ccc(C)cc1 [N-Ethyl-4-methylbenzenesulfonamide] | > 90 µM | –
Nc1nc(O)c2ncn(COC(CO)CO)c2n1 [Ganciclovir] | > 20 µM | –
O=C(O)CCC/C=C\C[C@@H]1[C@@H](/C=C/[C@@H](O)COc2cccc(C(F)(F)F)c2)[C@H](O)C[C@@H]1O (racemic) [Fluprostenol] | > 50 µM | –
CCCCCCCC/C=C\CCCCCCCCO [(9Z)-Octadec-9-en-1-ol] | > 90 µM | –
Cl/C(=C\n1cncn1)c1ccc(Cl)cc1Cl [Loreclezole hydrochloride] | > 50 µM | –
O=C(O)Cc1ccc(CCNS(=O)(=O)c2ccc(Cl)cc2)cc1 [Daltroban] | > 50 µM | –
COc1ccc(S(=O)(=O)Nc2nnc(CC(C)C)s2)cc1 [Glysobuzole] | > 50 µM | –
CNC(=O)Oc1cc(C)c(N(C)C)c(C)c1 [Mexacarbate] | – | CC50 at 24 h (AC50 (uM) modified / 1000, Tox21_110001=Tox21_200649, viability, 1 nM T3 present, 24 h): > 90 µM
SCc1ccccc1 [Benzenemethanethiol] | – | CC50 at 24 h (AC50 (uM) modified / 1000, Tox21_110001=Tox21_200129, viability, 1 nM T3 present, 24 h): > 90 µM

SMILES | CC50 at 24 h (AC50 (uM) modified / 1000) | also measured
CC(C(=O)O)c1ccc(C(=O)c2cccs2)cc1 (stereo not drawn) [Suprofen] | > 20 µM | –
C=C(C)C(=O)OCCOCCOC(=O)C(=C)C [Di(ethylene glycol) dimethacrylate] | > 90 µM | –
c1cc(CCCc2ccncc2)ccn1 [4,4'-Propane-1,3-diyldipyridine] | > 90 µM | –
Cc1ccnc(NS(=O)(=O)c2ccc(N)cc2)n1 [Sulfamerazine] | > 20 µM | –
CCCCCC#CC(=O)OC [Methyl 2-octynoate] | > 90 µM | –
CC(=O)C(Cl)C(=O)N(C)C (stereo not drawn) [2-Chloro-N,N-dimethyl-3-oxobutanamide] | > 90 µM | –
CCCc1nc2c(C)cc(-c3nc4ccccc4n3C)cc2n1Cc1ccc(-c2ccccc2C(=O)O)cc1 [Telmisartan] | > 50 µM | –
COC(=O)C1=C(C)NC(COC(N)=O)=C(C(=O)OC(C)C)C1c1cccc(Cl)c1Cl (stereo not drawn) [Lemildipine] | 25.8 µM | –
CCCc1nn(C)c2c(=O)[nH]c(-c3cc(S(=O)(=O)N4CCN(C)CC4)ccc3OCC)nc12 [Sildenafil citrate] | > 50 µM | –
C[C@H]1[C@H](NC(=O)/C(=N\OC(C)(C)C(=O)O)c2csc(N)n2)C(=O)N1S(=O)(=O)O [Aztreonam] | > 20 µM | –
C[C@@H](O)[C@H]1C(=O)N2C(C(=O)[O-])=C(SC3Cn4cnc[n+]4C3)[C@H](C)[C@H]12 (stereo partly drawn) [Biapenem] | > 50 µM | –
C[C@]12CC[C@H](O)CC1=CC[C@@H]1[C@@H]2CC[C@]2(C)C(=O)CC[C@@H]12 [Dehydroepiandrosterone] | > 90 µM | –
CC(CN=Cc1ccccc1O)N=Cc1ccccc1O (stereo not drawn) [N,N'-Disalicylidene-1,2-diaminopropane] | > 90 µM | –
O=C(CC(=O)c1ccccc1)c1ccccc1 [1,3-Diphenyl-1,3-propanedione] | > 100 µM | –
N#CCCCC(C#N)CCC#N (stereo not drawn) [1,3,6-Hexanetricarbonitrile] | > 90 µM | –
O=C(O)CNCC(=O)O [Iminodiacetic acid] | > 5 µM | –
CN1C(=O)C(O)N=C(c2ccccc2)c2cc(Cl)ccc21 (stereo not drawn) [Temazepam] | > 90 µM | –
CC(C)C(=O)c1ccccc1 [Isopropyl phenyl ketone] | > 90 µM | –
CN1CC[C@@]23CCCC[C@@H]2[C@@H]1Cc1ccc(O)cc13 [Dextrorphan tartrate] | > 50 µM | –
